These results are taken from paper PMC11684029, “Discovery of VU6024578/BI02982816: An mGlu1 Positive Allosteric Modulator with Efficacy in Preclinical Antipsychotic and Cognition Models” (Journal of Medicinal Chemistry, 2024).

Where two headings read alike, the source gives them in different places.

Series [1] concerns mGlu4. Also on record: method as in PMID 30116027, PMID 34731619, PMID 35643819, PMID 25137254, PMID 11606768. Conditions: Figure 1; cited from earlier work.
Series [2] concerns hmGlu1. Further details: method as in PMID 30116027, PMID 34731619, PMID 35643819, PMID 25137254, PMID 11606768. The conditions noted are these: Figure 1; read-out: hmGlu1 PAM EC50; cited from earlier work.
The nature of series [3]: IV dog PK. In kind it is in vivo. Conditions: male, beagle, plasma, 0.5 mg/kg IV; for C0: iv, 0.5 mg/kg. The method, then:
(§1) Deeper profiling began with IV dog PK (0.5 mg/kg, n = 3 male beagles). […] Was this a mechanism-based toxicity in dog? Could there be dog-specific pharmacology of mGlu1 activation? Were these AEs derived from the 19d chemotype? Could a mGlu1/mGlu5 heterodimer be responsible for the observed AEs? […] In an attempt to address the chemotype question, we evaluated PAM 4 (VU6004909),[8] an early generation rodent in vivo tool compound, for the first time in dog PK. […] of the study with 19d, PAM 4 produced no AEs in dog. […] Therefore, more molecular pharmacology and PK studies as well as additional chemically distinct mGlu1 PAM chemotypes are required to understand the AEs elicited by an mGlu1 PAM in dogs, an otherwise very promising target for the treatment of schizophrenia.

Series [4] relates to male beagles. The series can be described thus: adverse events in dog PK. In kind it is in vivo. Conditions: 0.5 mg/kg IV. The method, then:
as §1

For series [5], the target named is dog mGlu1 (Canis lupus familiaris, UniProt A0A8I3NTE8). The series can be described thus: mGlu1 PAM assay, dog receptor. Type of series: cell-based.
The nature of series [6]: intrinsic clearance, predicted hepatic clearance. The conditions noted are these: in vitro predicted hepatic clearance. In kind it is in vitro ADME, human. How it is done: (§2) Human or rat hepatic microsomes (0.5 mg/mL) and 1 μM test compound were incubated in 100 mM potassium phosphate pH 7.4 buffer with 3 mM MgCl2 at 37 °C with constant shaking. After a 5 min preincubation, the reaction was initiated by addition of NADPH (1 mM). At selected time intervals (0, 3, 7, 15, 25, and 45 min), aliquots were taken and subsequently placed into a 96-well plate containing cold acetonitrile with internal standard (50 ng/mL carbamazepine). Plates were then centrifuged at 3000 rcf (4 °C) for 10 min, and the supernatant was transferred to a separate 96-well plate and diluted 1:1 with water for LC/MS/MS analysis. The in vitro half-life (T1/2, min, eq 1), intrinsic clearance (CLint, mL/min/kg, eq 2) and subsequent predicted hepatic clearance (CLhep, mL/min/kg, eq 3) was determined employing the following equations: [drawing 2] 1 where k represents the slope from linear regression analysis of the natural log percent remaining of test compound as a function of incubation time [drawing 3] 2
(§3) ^ascale-up factors: of 20 (human) or 45 (rat) [drawing 4] 3 where Qh (hepatic blood flow, mL/min/kg) is 21 (human) or 70 (rat).

Series [7] in a line: intrinsic clearance, predicted hepatic clearance. Type of series: in vitro ADME, rat. The conditions noted are these: in vitro predicted hepatic clearance. How it is done: as §2, §3
In series [8] the target is T1, human mGlu1 (Homo sapiens, UniProt Q13255).
T1 construct: expressed in transfected cells; pcDNA5/TO)
Briefly: mGlu1 calcium mobilization (triple-add) PAM assay. The conditions noted are these: PAM, calcium flux, EC20 glutamate. In kind it is cell-based. The method, then:
Tetracycline-inducible human mGlu1 WT-T-REx-293 cells (Wu et al, Science 2014) were cultured at 37 °C in Dulbecco’s Modified Eagle Medium (DMEM) growth medium containing 10% Tet-tested FBS, 2 mM L-glutamine, 20 mM HEPES, 0.1 mM nonessential amino acids, 1 mM sodium pyruvate, antibiotic/antimycotic, 100 μg/mL hygromycin and 5 μg/mL blasticidin in the presence of 5% CO2. […] The mutant stable cell lines were generated in the same manner as the WT as previously described and cultured in the growth medium described above.
To determine the potency of mGlu1 PAMs in calcium assays, Ca flux was measured as previously described in ACS Chem. Bio. 2014, 9, 2334–2346. Briefly, the day before the assay, human mGlu1 WT-T-REx-293 cells were plated in black-walled, clear-bottomed, poly-D-lysine coated 96-well plates at 80,000 cells/100 μL assay medium (DMEM supplemented with 10% dialyzed FBS, 20 mM HEPES, and 1 mM sodium pyruvate) containing 50 ng/mL of tetracycline to induce mGlu1 expression. The next day, media was removed and the cells were incubated with 50 μL of 1.15 μM Fluo-4 AM dye solution prepared in assay buffer (buffer (Hank’s balanced salt solution, 20 mM HEPES, and 2.5 mM probenecid) for 45 min at 37 °C, the dye was removed and replaced with 45 μL of assay buffer. Then, calcium flux was measured using Flexstation II (Molecular Devices, Sunnyvale, CA). Compounds serially diluted at half log concentrations in DMSO were further diluted in assay buffer. The compounds or DMSO vehicle were added to cells and incubated for 2.5 min and an EC20 concentration of glutamate was added and incubated for 1 min. An ECmax concentration of glutamate was also added to cells that were incubated with DMSO vehicle to accurately calculate the EC20 calcium response. Data were normalized by subtracting the basal florescent peak before EC20 agonist addition from the maximal peak elicited by EC20 agonist and PAMs. Using GraphPad Prism 5.0, the concentration response curves were generated and the potencies of the mGlu1 PAMs were determined.
(In general: Calcium assays in cells follow changes in intracellular calcium, usually with a dye or a luminescent sensor.)

Series [9] in a line: plasma protein binding, equilibrium dialysis. In kind it is in vitro ADME, human. Conditions: fraction unbound. The method, then:
(§4) The protein binding of each compound was determined in plasma via equilibrium dialysis employing RED Plates (ThermoFisher Scientific, Rochester, NY). Plasma was added to the 96 well plate containing test compound and mixed thoroughly for a final concentration of 5 μM. Subsequently, an aliquot of the plasma-compound mixture was transferred to the cis chamber (red) of the RED plate, with an phosphate buffer (25 mM, pH 7.4) in the trans chamber. The RED plate was sealed and incubated for 4 h at 37 °C with shaking. At completion, aliquots from each chamber were diluted 1:1 with either plasma (cis) or buffer (trans) and transferred to a new 96 well plate, at which time ice-cold acetonitrile containing internal standard (50 ng/mL carbamazepine) (2 volumes) was added to extract the matrices. The plate was centrifuged (3000 rcf, 10 min) and supernatants transferred and diluted 1:1 (supernatant: water) into a new 96 well plate, which was then sealed in preparation for LC/MS/MS analysis. Each compound was assayed in triplicate within the same 96-well plate. Fraction unbound was determined using the following equation [drawing 1]
(In equilibrium dialysis only unbound substance equilibrates across the membrane.)

Series [10] is described as follows: plasma protein binding, equilibrium dialysis. In kind it is in vitro ADME, rat. Conditions: fraction unbound. How it is done: as §4
For series [11], the target named is rat mGlu1 (Rattus norvegicus, UniProt P23385). The series can be described thus: mGlu1 calcium mobilization PAM assay. The conditions noted are these: PAM, calcium flux. Type of series: cell-based.
Series [12] can be described thus: brain homogenate binding. Type of series: in vitro ADME, rat. Conditions: fraction unbound.
Series [13] is described as follows: rat IV plasma:brain level (PBL) PK. Type of series: in vivo.
Series [14] has as its system Sprague–Dawley rats. Briefly: catalepsy (latency to withdraw). Type of series: in vivo. Conditions: rat, positive control, 1.5 mg/kg i.p. How it is done: In order to enable our target validation work, we first profiled PAM 19d in a rat locomotor battery to ensure that pharmacodynamic efficacy was not mistaken for gross effects on locomotion.[20] […] PK was performed in parallel to establish a PK/PD relationship.[24]
Control rats were injected with 1.5 mg/kg of haloperidol i.p. (dissolved in 8% lactic acid and taken to volume of 50 mL with sterile water) and were returned to their home cage for 90 min. Cataleptic behavior is determined by placing the forelimbs on a bar raised 6 cm above the table and recording the amount of time it takes for the rat to withdraw the forelimbs with a cutoff of 60 s. Data are expressed as mean latency to withdraw + SEM or percent inhibition of catalepsy + SEM.

Chain of rat mGlu1 (P23385 19-1199): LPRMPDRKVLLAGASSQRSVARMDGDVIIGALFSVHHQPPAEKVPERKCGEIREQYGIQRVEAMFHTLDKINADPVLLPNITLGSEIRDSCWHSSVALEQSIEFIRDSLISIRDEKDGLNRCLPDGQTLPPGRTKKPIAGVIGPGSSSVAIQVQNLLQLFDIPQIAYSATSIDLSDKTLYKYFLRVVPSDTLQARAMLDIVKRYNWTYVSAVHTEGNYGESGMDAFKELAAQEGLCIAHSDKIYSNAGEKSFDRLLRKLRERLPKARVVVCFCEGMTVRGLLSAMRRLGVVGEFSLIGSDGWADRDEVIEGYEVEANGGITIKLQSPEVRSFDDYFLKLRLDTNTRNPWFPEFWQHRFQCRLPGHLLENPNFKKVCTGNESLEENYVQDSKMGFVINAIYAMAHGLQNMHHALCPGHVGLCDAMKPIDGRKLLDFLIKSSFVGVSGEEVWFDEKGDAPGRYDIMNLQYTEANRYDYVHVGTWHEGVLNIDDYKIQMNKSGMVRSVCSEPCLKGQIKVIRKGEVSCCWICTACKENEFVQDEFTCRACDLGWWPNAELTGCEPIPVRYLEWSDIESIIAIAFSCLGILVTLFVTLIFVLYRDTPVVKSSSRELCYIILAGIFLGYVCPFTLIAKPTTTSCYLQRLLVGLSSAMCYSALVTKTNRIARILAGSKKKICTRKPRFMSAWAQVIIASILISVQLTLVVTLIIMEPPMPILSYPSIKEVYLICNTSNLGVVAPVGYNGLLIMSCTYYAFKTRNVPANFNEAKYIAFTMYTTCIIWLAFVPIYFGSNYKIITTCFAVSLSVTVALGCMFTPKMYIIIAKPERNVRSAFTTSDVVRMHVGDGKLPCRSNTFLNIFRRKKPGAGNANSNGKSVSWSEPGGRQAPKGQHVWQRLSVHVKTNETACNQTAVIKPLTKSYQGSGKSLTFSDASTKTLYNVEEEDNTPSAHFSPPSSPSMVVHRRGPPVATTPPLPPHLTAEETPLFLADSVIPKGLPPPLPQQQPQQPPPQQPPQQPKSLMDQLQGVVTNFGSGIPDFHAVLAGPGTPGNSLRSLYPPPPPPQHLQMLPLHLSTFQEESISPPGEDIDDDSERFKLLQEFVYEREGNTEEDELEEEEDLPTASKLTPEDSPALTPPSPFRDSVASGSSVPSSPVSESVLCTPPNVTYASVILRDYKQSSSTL
T1 sequence (Q13255 19-1194): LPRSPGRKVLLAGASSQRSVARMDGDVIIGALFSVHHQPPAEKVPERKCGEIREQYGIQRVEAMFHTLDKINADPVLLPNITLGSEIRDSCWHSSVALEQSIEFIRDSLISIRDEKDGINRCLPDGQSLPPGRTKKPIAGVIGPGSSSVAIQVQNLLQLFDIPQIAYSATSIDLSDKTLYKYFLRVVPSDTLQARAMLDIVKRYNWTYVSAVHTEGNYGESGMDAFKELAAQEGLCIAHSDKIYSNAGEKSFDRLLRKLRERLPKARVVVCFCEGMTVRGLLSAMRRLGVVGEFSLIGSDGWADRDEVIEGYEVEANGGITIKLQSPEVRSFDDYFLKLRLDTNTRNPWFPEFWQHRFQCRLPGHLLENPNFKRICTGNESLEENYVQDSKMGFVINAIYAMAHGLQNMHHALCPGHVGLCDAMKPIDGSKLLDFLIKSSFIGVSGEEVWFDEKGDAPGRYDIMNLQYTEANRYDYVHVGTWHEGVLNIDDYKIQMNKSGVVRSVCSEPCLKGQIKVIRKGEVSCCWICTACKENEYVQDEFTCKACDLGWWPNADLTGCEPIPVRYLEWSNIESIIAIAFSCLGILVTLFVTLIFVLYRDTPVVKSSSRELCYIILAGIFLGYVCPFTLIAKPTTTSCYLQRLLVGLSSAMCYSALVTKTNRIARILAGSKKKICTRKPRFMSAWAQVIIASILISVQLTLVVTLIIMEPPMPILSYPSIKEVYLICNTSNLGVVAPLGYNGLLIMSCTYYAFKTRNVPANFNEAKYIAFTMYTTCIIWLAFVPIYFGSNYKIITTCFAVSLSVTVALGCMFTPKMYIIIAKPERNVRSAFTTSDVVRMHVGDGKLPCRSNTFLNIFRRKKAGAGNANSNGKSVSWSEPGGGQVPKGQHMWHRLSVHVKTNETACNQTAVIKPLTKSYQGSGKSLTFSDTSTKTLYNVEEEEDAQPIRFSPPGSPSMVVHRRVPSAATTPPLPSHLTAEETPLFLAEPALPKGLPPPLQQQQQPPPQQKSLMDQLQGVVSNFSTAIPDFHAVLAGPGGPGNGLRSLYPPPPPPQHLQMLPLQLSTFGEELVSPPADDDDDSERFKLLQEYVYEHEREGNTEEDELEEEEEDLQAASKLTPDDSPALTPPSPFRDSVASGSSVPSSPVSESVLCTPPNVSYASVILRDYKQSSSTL
Chain of dog mGlu1 (A0A8I3NTE8 30-1195): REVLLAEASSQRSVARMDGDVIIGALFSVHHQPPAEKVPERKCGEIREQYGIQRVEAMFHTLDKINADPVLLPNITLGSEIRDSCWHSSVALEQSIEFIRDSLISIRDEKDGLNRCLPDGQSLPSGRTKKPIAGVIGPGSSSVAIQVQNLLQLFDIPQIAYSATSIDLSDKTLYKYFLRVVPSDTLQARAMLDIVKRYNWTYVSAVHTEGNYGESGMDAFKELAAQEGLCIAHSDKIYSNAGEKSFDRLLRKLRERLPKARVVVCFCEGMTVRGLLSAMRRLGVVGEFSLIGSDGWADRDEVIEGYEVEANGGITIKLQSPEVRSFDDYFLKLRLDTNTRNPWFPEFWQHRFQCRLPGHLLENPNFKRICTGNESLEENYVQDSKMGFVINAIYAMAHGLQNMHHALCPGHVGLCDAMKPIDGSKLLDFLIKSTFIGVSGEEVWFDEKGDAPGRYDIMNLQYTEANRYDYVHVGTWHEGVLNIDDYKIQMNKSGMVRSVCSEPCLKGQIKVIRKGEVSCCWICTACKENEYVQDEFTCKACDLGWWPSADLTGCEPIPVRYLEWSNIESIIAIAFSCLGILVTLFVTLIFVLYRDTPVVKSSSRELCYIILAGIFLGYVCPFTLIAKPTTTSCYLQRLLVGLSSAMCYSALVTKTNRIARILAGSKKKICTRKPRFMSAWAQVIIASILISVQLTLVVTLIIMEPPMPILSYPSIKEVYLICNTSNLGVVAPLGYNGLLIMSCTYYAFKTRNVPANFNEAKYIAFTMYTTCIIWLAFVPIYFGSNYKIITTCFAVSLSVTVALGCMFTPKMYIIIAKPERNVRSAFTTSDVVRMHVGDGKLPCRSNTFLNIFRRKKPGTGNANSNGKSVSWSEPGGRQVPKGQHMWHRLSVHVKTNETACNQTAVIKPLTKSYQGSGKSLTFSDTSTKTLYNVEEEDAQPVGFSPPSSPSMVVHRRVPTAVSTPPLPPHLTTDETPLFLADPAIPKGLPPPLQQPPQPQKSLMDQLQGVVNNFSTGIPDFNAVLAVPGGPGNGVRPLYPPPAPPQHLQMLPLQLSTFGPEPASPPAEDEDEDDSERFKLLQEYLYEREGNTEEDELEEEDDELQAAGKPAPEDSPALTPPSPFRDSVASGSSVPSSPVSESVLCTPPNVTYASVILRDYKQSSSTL

As to `Cc1ccoc1C(=O)Nc1ccc(N2C(=O)c3cccc(F)c3C2=O)c(Cl)c1` [Compound 3], the “selectivity vs. mGlu4” value in series [1] was ~ 35 fold. Besides, in [2], the EC50 was 32 nM.

On to `Cc1ccc2c(c1)C(=O)N(c1ccc(NC(=O)c3occc3C)c(F)c1)C2=O` [Compound 4, reference compound], for which the half-life in [3] was 16.8 h. Also, the clearance in series [3] (read-out: CLp) was 14 mL/min/kg. Also, in series [3] (read-out: Vss), the Vd amounted to 12 L/kg. In addition, the C0 was 1100 nM in series [3] (read-out: C0 exposure, total) and 36.4 nM in [3] (read-out: C0 exposure, unbound). Also, the “selectivity vs. mGlu4” value in series [1] is reported as ~ 790 fold. For the same compound, in series [4], the “adverse events (AEs) in dog” value is listed as “no AEs”. The same compound displayed an EC50 in series [5] of 400 nM.

With `O=C(Nc1ccc(N2C(=O)c3cccc(Cl)c3C2=O)c(Cl)c1)c1ncccc1Cl` [Compound 2], the “selectivity vs. mGlu4” value in series [1] is given as ~ 30 fold. The EC50 in series [2] was 390 nM.

On to `O=C(NCc1cnn2ccccc12)c1cc(-c2ccco2)ccc1Cl` [Compound 9k, 2-Chloro-5-(furan-2-yl)-N-(pyrazolo[1,5-a]pyridin-3-ylmethyl)benzamide], for which, in [6], the “CLhep, human” value is listed as 19.8 mL/min/kg. Moreover, the “CLhep, rat” value in series [7] is on record as 63.7 mL/min/kg. Moreover, in series [8], the EC50 amounted to 51 nM and the “human mGlu1 Glumax” value was 53%. The compound also yielded a human fuplasma in [9] of 0.036. The same compound returned a rat fuplasma in [10] of 0.022. In series [11], the EC50 stood at 109 nM and the “rat mGlu1 Glumax” value is recorded as 92%. For the same compound, the rat fubrain in series [12] is given as 0.021. This compound displayed a Kp at 15 min in series [13] (Sprague-Dawley, 0.25 mg/kg/compound, rat IV PBL, brain:plasma) of 0.27. Moreover, the clearance in series [13] (Sprague-Dawley, plasma, intravenous, rat PK PBL experiment, read-out: CLp) turned out to be 67.2 mL/min/kg. In series [13] (rat PK PBL experiment), this compound returned an MRT of 0.355 h and a t1/2 of 0.397 h.

Turning to `Cc1ccoc1C(=O)Nc1ccc(N2Cc3c(Cl)cccc3C2=O)c(Cl)c1` [Compound 5], in [1], the “selectivity vs. mGlu4” value is on record as ~ 50 fold. In addition, the concentration giving a half-maximal response (EC50) in series [2] is 211 nM.

Regarding `Cn1nc(-c2cccnc2)cc1CNC(=O)c1cc(-c2ccco2)ccc1Cl` [Compound 19c, 2-Chloro-5-(furan-2-yl)-N-((1-methyl-3-(pyridin-3-yl)-1H-pyrazol-5-yl)methyl)benzamide], in series [6], the “CLhep, human” value was 18.8 mL/min/kg. In addition, the “CLhep, rat” value in series [7] is on record as 51.7 mL/min/kg. Besides, in [8], the EC50 was found to be 74 nM and the “human mGlu1 Glumax” value worked out at 60%. The human fuplasma in [9] was 0.023. The compound further gave a rat fuplasma in series [10] of 0.015. In series [11], the EC50 was determined as 124 nM and the “rat mGlu1 Glumax” value came to 116%. In series [12], this compound had a rat fubrain of 0.021.

Consider `O=C(CCCN1CCC(O)(c2ccc(Cl)cc2)CC1)c1ccc(F)cc1` [haloperidol, reference compound], for which the catalepsy entry in series [14] is given as “induced profound catalepsy”.

For the compound `O=C(NCc1noc(-c2ccccc2)n1)c1cc(-c2ccco2)ccc1Cl` [Compound 15b, 2-Chloro-5-(furan-2-yl)-N-((5-phenyl-1,2,4-oxadiazol-3-yl)methyl)benzamide], the “CLhep, human” value in series [6] was 19.9 mL/min/kg. In addition, the “CLhep, rat” value in series [7] was 61.8 mL/min/kg. In series [8], the EC50 amounted to 39 nM and the “human mGlu1 Glumax” value is on record as 56%. This compound showed a human fuplasma in [9] of 0.001. For the same compound, the rat fuplasma in [10] is 0.004. Besides, in series [11], the EC50 is 62 nM and the “rat mGlu1 Glumax” value stood at 106%. The compound further displayed a rat fubrain in [12] of 0.005.

A word on the EC50: it is the concentration needed to bring the measured effect to its halfway point. What is called half-life is the time in which the quantity being followed falls by half. Lower therefore signals fast loss. Broadly, the Kp is tissue or fluid exposure divided by exposure in the circulation. Usually MRT stands for a mean duration of stay, worked out from the concentration-time curve.
